The structures appear in SMILES notation.

Experiment [1] concerns the target Cannabinoid receptor 2 (Mus musculus, UniProt P47936).
Experiment [2] deals with Cannabinoid receptor 1 (Mus musculus, UniProt P47746).
The target in experiment [3] is Cannabinoid receptor 1 (Rattus norvegicus, UniProt P20272).
In experiment [4] the target is T1, Cannabinoid receptor 2 (Rattus norvegicus, UniProt Q9QZN9).
T1 sequence (Q9QZN9 whole entry): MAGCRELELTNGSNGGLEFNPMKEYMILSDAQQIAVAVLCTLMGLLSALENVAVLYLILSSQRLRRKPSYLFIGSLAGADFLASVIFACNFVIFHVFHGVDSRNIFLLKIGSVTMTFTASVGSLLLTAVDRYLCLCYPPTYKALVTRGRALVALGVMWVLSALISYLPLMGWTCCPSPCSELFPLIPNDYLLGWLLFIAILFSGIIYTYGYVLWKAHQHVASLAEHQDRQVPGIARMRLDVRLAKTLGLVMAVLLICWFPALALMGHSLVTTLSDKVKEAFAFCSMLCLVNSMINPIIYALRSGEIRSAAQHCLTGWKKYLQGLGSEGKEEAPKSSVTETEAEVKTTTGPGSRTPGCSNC

Cannabinoid receptor 2 (Mus musculus, UniProt P47936), sequence (P47936 whole entry): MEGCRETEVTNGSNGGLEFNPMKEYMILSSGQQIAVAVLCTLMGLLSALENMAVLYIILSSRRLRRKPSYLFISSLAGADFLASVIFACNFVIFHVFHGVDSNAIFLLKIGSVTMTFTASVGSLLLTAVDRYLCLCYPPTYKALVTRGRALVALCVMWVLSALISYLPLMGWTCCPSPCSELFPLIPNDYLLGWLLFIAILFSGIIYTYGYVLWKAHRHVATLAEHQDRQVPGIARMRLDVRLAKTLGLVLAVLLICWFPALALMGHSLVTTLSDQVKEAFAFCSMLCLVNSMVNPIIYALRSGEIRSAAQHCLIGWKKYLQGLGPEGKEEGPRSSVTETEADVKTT
Cannabinoid receptor 1 (Mus musculus, UniProt P47746), sequence (P47746 whole entry): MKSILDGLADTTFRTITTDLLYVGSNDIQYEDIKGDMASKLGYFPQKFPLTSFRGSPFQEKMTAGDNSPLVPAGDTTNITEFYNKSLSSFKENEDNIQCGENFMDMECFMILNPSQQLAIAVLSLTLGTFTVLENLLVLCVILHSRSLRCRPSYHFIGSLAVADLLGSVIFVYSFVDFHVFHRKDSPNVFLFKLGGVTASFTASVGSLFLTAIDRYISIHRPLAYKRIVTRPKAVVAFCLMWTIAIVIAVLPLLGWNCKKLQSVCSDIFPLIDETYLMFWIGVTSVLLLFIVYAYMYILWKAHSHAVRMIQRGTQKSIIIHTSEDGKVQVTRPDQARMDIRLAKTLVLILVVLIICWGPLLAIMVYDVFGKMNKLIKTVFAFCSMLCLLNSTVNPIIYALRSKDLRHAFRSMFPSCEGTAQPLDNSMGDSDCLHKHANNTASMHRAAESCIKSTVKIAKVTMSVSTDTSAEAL
Cannabinoid receptor 1 (Rattus norvegicus, UniProt P20272), sequence (P20272 whole entry): as the sequence (P47746 whole entry) above, with D95E counted along it

As for `Cc1c(C(=O)c2cccc3ccccc23)c2cccc3c2n1[C@H](CN1CCOCC1)CO3` [WIN55212-2], in experiment [1], the Ki turned out to be 0.56 nM.

On to `CCCCCOc1c(OC)ccc2cc(C(=O)NCc3ccc4c(c3)OCO4)c(=O)[nH]c12` [N-(1,3-Benzodioxole-5-ylmethyl)-2-oxo-7-methoxy-8-pentoxy-1,2-dihydro-3-quinolinecarboxamide], for which the Ki in experiment [1] stood at 1.55 nM; in experiment [2], 1060 nM; in experiment [3], 1050 nM; in experiment [4] it was 0.38 nM.

On to `CCCCCc1cc(O)c2c(c1)OC(C)(C)[C@@H]1CCC(C)=CC21` (stereo partly specified) [Tetrahydrocannabinol], for which the Ki in experiment [1] stood at 1.73 nM.
